Patent US20230111310A1, “CARBOXYLIC ACID DERIVATIVE-SUBSTITUTED IMINO ARYL COMPOUND, PREPARATION METHOD THEREFOR, HERBICIDAL COMPOSITION AND USE THEREOF” (Qingdao Kingagroot Chemical Compound Co., Ltd., priority 2020, published 2023)

Key:
Assay in all cases: Weeding effect in post-emergence stage
Assay type in all cases: in vivo
Settings in all cases: level of fresh weight growth control rate
Echinochloa crusgalli = system: Echinochloa crusgalli
How it was run: (§1)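 Pot-grown greenhouse plants sprayed at 2–3 leaf stage, 2 weeks after sowing, with compound in acetone/Tween 80 plus methyl oleate emulsifiable concentrate (1.5 liter/ha) at 500–7.5 g/ha. Growth control rated 3 weeks after treatment; mean of three replicates.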

Digitaria sanguinalis = system: Digitaria sanguinalis
How it was run: as §1

Abutilon theophrasti = system: Abutilon theophrasti
How it was run: as §1

Eleusine indica = system: Eleusine indica
How it was run: as §1

Alopecurus japonicus = system: Alopecurus japonicus
How it was run: as §1

Setaria viridis = system: Setaria viridis
How it was run: as §1

`CC(O/N=C/c1cc(-n2c(=O)cc(C(F)(F)F)n(C)c2=O)c(F)cc1Cl)C(=O)OCC1OCCO1` (stereo not drawn) [Compound 266] was tested, and the “Weeding effect in post-emergence stage, Echinochloa crusgalli” value (“Weeding effect … Echinochloa crusgalli” for short) (Echinochloa crusgalli; Dose 30 g/ha) was 5 (Level 5: growth control rate is above 85%), the “Weeding effect in post-emergence stage, Digitaria sanguinalis” value (“Weeding effect … Digitaria sanguinalis” for short) (Digitaria sanguinalis; Dose 30 g/ha) was 5 (Level 5: growth control rate is above 85%) and the “Weeding effect in post-emergence stage, Abutilon theophrasti” value (“Weeding effect … Abutilon theophrasti” for short) (Abutilon theophrasti; Dose 30 g/ha) was 5 (Level 5: growth control rate is above 85%). The “Weeding effect in post-emergence stage, Eleusine indica” value (“Weeding effect … Eleusine indica” below) (Eleusine indica; Dose 30 g/ha) was 5 (Level 5: growth control rate is above 85%), the “Weeding effect in post-emergence stage, Alopecurus japonicus” value (from here on “Weeding effect … Alopecurus japonicus”) (Alopecurus japonicus; Dose 30 g/ha) was 5 (Level 5: growth control rate is above 85%) and the “Weeding effect in post-emergence stage, Setaria viridis” value (“Weeding effect … Setaria viridis” below) (Setaria viridis; Dose 30 g/ha) was 5 (Level 5: growth control rate is above 85%).

In the case of `CC(O/N=C/c1cc(-n2c(=O)cc(C(F)(F)F)n(C)c2=O)c(F)cc1Cl)C(=O)OCc1cccs1` (stereo not drawn) [Compound 268], the “Weeding effect … Echinochloa crusgalli” value (Echinochloa crusgalli; Dose 30 g/ha) is reported as 5 (Level 5: growth control rate is above 85%), the “Weeding effect … Digitaria sanguinalis” value (Digitaria sanguinalis; Dose 30 g/ha) is reported as 5 (Level 5: growth control rate is above 85%) and the “Weeding effect … Abutilon theophrasti” value (Abutilon theophrasti; Dose 30 g/ha) is reported as 5 (Level 5: growth control rate is above 85%). For the same molecule, the “Weeding effect … Eleusine indica” value (Eleusine indica; Dose 30 g/ha) was 5 (Level 5: growth control rate is above 85%), the “Weeding effect … Alopecurus japonicus” value (Alopecurus japonicus; Dose 30 g/ha) was 5 (Level 5: growth control rate is above 85%) and the “Weeding effect … Setaria viridis” value (Setaria viridis; Dose 30 g/ha) was 5 (Level 5: growth control rate is above 85%).

With `CC(O/N=C/c1cc(-n2c(=O)cc(C(F)(F)F)n(C)c2=O)c(F)cc1Cl)C(=O)OCc1ccccc1` (stereo not drawn) [Compound 283] the “Weeding effect … Echinochloa crusgalli” value (Echinochloa crusgalli; Dose 15 g/ha) was 5 (Level 5: growth control rate is above 85%), the “Weeding effect … Digitaria sanguinalis” value (Digitaria sanguinalis; Dose 15 g/ha) was 5 (Level 5: growth control rate is above 85%) and the “Weeding effect … Abutilon theophrasti” value (Abutilon theophrasti; Dose 15 g/ha) was 5 (Level 5: growth control rate is above 85%). The “Weeding effect … Eleusine indica” value (Eleusine indica; Dose 15 g/ha) was 5 (Level 5: growth control rate is above 85%), the “Weeding effect … Alopecurus japonicus” value (Alopecurus japonicus; Dose 15 g/ha) was 5 (Level 5: growth control rate is above 85%) and the “Weeding effect … Setaria viridis” value (Setaria viridis; Dose 15 g/ha) was 5 (Level 5: growth control rate is above 85%).

`CC(O/N=C/c1cc(-n2c(=O)cc(C(F)(F)F)n(C)c2=O)c(F)cc1Cl)C(=O)OCc1ccccc1F` (stereo not drawn) [Compound 284] was tested, and the “Weeding effect … Echinochloa crusgalli” value (Echinochloa crusgalli; Dose 15 g/ha) was 5 (Level 5: growth control rate is above 85%), the “Weeding effect … Digitaria sanguinalis” value (Digitaria sanguinalis; Dose 15 g/ha) was 5 (Level 5: growth control rate is above 85%) and the “Weeding effect … Abutilon theophrasti” value (Abutilon theophrasti; Dose 15 g/ha) was 5 (Level 5: growth control rate is above 85%). For the same molecule, the “Weeding effect … Eleusine indica” value (Eleusine indica; Dose 15 g/ha) was 5 (Level 5: growth control rate is above 85%), the “Weeding effect … Alopecurus japonicus” value (Alopecurus japonicus; Dose 15 g/ha) was 5 (Level 5: growth control rate is above 85%) and the “Weeding effect … Setaria viridis” value (Setaria viridis; Dose 15 g/ha) was 5 (Level 5: growth control rate is above 85%).

For `CC(O/N=C/c1cc(-n2c(=O)cc(C(F)(F)F)n(C)c2=O)c(F)cc1Cl)C(=O)OCc1cccc(F)c1` (stereo not drawn) [Compound 285], the “Weeding effect … Echinochloa crusgalli” value (Echinochloa crusgalli; Dose 30 g/ha) was 5 (Level 5: growth control rate is above 85%), the “Weeding effect … Digitaria sanguinalis” value (Digitaria sanguinalis; Dose 30 g/ha) was 5 (Level 5: growth control rate is above 85%) and the “Weeding effect … Abutilon theophrasti” value (Abutilon theophrasti; Dose 30 g/ha) was 5 (Level 5: growth control rate is above 85%). The “Weeding effect … Eleusine indica” value (Eleusine indica; Dose 30 g/ha) was 5 (Level 5: growth control rate is above 85%), the “Weeding effect … Alopecurus japonicus” value (Alopecurus japonicus; Dose 30 g/ha) was 5 (Level 5: growth control rate is above 85%) and the “Weeding effect … Setaria viridis” value (Setaria viridis; Dose 30 g/ha) was 5 (Level 5: growth control rate is above 85%).

`CC(O/N=C/c1cc(-n2c(=O)cc(C(F)(F)F)n(C)c2=O)c(F)cc1Cl)C(=O)OCc1ccc(F)cc1` (stereo not drawn) [Compound 286] was tested, and the “Weeding effect … Echinochloa crusgalli” value (Echinochloa crusgalli; Dose 30 g/ha) was 5 (Level 5: growth control rate is above 85%), the “Weeding effect … Digitaria sanguinalis” value (Digitaria sanguinalis; Dose 30 g/ha) was 5 (Level 5: growth control rate is above 85%) and the “Weeding effect … Abutilon theophrasti” value (Abutilon theophrasti; Dose 30 g/ha) was 5 (Level 5: growth control rate is above 85%). The “Weeding effect … Eleusine indica” value (Eleusine indica; Dose 30 g/ha) was 5 (Level 5: growth control rate is above 85%), the “Weeding effect … Alopecurus japonicus” value (Alopecurus japonicus; Dose 30 g/ha) was 5 (Level 5: growth control rate is above 85%) and the “Weeding effect … Setaria viridis” value (Setaria viridis; Dose 30 g/ha) was 5 (Level 5: growth control rate is above 85%).

For `CC(O/N=C/c1cc(-n2c(=O)cc(C(F)(F)F)n(C)c2=O)c(F)cc1Cl)C(=O)OCc1ccccn1` (stereo not drawn) [Compound 301], the “Weeding effect … Echinochloa crusgalli” value (Echinochloa crusgalli; Dose 15 g/ha) was 5 (Level 5: growth control rate is above 85%), the “Weeding effect … Digitaria sanguinalis” value (Digitaria sanguinalis; Dose 15 g/ha) was 5 (Level 5: growth control rate is above 85%) and the “Weeding effect … Abutilon theophrasti” value (Abutilon theophrasti; Dose 15 g/ha) was 5 (Level 5: growth control rate is above 85%). For the same molecule, the “Weeding effect … Eleusine indica” value (Eleusine indica; Dose 15 g/ha) was 5 (Level 5: growth control rate is above 85%), the “Weeding effect … Alopecurus japonicus” value (Alopecurus japonicus; Dose 15 g/ha) was 5 (Level 5: growth control rate is above 85%) and the “Weeding effect … Setaria viridis” value (Setaria viridis; Dose 15 g/ha) was 5 (Level 5: growth control rate is above 85%).

With `CC(O/N=C/c1cc(-n2c(=O)cc(C(F)(F)F)n(C)c2=O)c(F)cc1Cl)C(=O)OCc1cccnc1` (stereo not drawn) [Compound 302] the “Weeding effect … Echinochloa crusgalli” value (Echinochloa crusgalli; Dose 15 g/ha) was 5 (Level 5: growth control rate is above 85%), the “Weeding effect … Digitaria sanguinalis” value (Digitaria sanguinalis; Dose 15 g/ha) was 5 (Level 5: growth control rate is above 85%) and the “Weeding effect … Abutilon theophrasti” value (Abutilon theophrasti; Dose 15 g/ha) was 5 (Level 5: growth control rate is above 85%). For the same molecule, the “Weeding effect … Eleusine indica” value (Eleusine indica; Dose 15 g/ha) was 5 (Level 5: growth control rate is above 85%), the “Weeding effect … Alopecurus japonicus” value (Alopecurus japonicus; Dose 15 g/ha) was 5 (Level 5: growth control rate is above 85%) and the “Weeding effect … Setaria viridis” value (Setaria viridis; Dose 15 g/ha) was 5 (Level 5: growth control rate is above 85%).
